In assay [1] the test system is SK-MEL-2 cells. Kind of assay: Wound healing assay. The assay is classed as cell-based, human. To be noted: for scratch coverage in wound healing assay: two days; for wound closure: 2.5 μM, day 3 or 4, p≤0.01. How it is done: (§1) For the wound-healing assay, melanoma cells were seeded into 35 mm dishes in 6-well-plates. After the cells had reached 100% confluency, the wound-healing assay was performed with a sterile pipette tip (1-10 μL pipette tip) by making a scratch through the confluent monolayer. Subsequently, the cells were washed with DPBS and fresh medium (EMEM) was added to each well and the desired amount of inhibitor was added in order to achieve the final concentrations of 50 nM, 100 nM, 200 nM, 500 nM and 1 μM against the control. Cells were cultured for 48 h. In 24 hours intervals, pictures of wound closure were taken and the percentage of wound closure was calculated in three randomly chosen fields.
The scratch was even clearer after two days in 1 μM sample compared to 200 nM sample. Also the number of dead cells floating was highest in 1 μM, followed by 200 nM; whereas, floating cells were rarely observed in the control samples.
A wound healing assay was performed to investigate the effect of ACPD and DNDA on malignant melanoma cell migration in vitro. Wound healing assay is commonly used to investigate in vitro migration of cancer cells. For the wound-healing assay, melanoma cells were seeded into 35 mm dishes in 6-well-plates. After the cells had reached 100% confluency, the wound-healing assay was performed with a sterile pipette tip (1-10 μL pipette tip) by making a scratch through the confluent monolayer. Subsequently, the cells were washed with DPBS and fresh medium (EMEM) was added to each well and the desired amount of inhibitor was added. Each well was subsequently incubated with sterile water or desired amount of ICA-1, ACPD, DNDA, or c-Stat to achieve the final concentration of the half maximal inhibitory concentration (IC50) for each inhibitor. Plates were incubated at 37 ° C. and 5% CO2 and photographs of wound closure were taken utilizing a Motic AE31E microscope (40× magnification). The percentage of wound closure was calculated after 3 or 4 days.
In one set of experiments, cells were cultured for 48 h. In 24 hours intervals, pictures of wound closure were taken and the percentage of wound closure was calculated in three randomly chosen fields. […] In each figure, cells treated with ACPD 2.5 μM and DNDA 2.5 μM were compared with their respective controls. The areas of the scratch (wound) were calculated and compared to determine the statistical significance (FIG. 8C).

Assay [2] concerns MeWo cells. Kind of assay: Wound healing assay. To be noted: 2.5 μM, day 3 or 4, p≤0.01. The assay is classed as cell-based, human. How it is done: as §1
A wound healing assay was performed to investigate the effect of ACPD and DNDA on malignant melanoma cell migration in vitro. Wound healing assay is commonly used to investigate in vitro migration of cancer cells. For the wound-healing assay, melanoma cells were seeded into 35 mm dishes in 6-well-plates. […] The percentage of wound closure was calculated after 3 or 4 days.
In one set of experiments, cells were cultured for 48 h. In 24 hours intervals, pictures of wound closure were taken and the percentage of wound closure was calculated in three randomly chosen fields. […] The areas of the scratch (wound) were calculated and compared to determine the statistical significance (FIG. 8C).

The test system of assay [3] is MeWo cells. As to the kind of experiment: Western blot of protein levels. Format: cell-based, human. On the technique in general: Immunoblotting shows a protein as a band on a membrane.
The target of assay [4] is T1, PKM-ζ (Homo sapiens, UniProt Q05513).
T1 construct: proteolytic cleavage of N-regulatory domain and the C-terminal catalytic domain of PKC-ζ
T1 sequence (Q05513 1-409 isoform Q05513-2): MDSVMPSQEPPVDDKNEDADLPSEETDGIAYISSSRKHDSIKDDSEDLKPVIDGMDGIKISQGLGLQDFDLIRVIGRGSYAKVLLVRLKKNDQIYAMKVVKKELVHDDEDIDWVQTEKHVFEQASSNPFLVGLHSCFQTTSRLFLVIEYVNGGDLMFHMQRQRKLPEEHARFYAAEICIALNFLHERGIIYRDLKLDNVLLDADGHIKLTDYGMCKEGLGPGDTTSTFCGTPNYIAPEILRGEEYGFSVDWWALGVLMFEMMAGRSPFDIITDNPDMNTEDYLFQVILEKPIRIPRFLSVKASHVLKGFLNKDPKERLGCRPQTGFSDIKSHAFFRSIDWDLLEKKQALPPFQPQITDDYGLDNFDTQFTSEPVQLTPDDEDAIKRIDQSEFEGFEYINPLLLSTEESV
Kind of assay: PKC activity assay (phosphorylation of myelin basic protein). The assay is classed as biochemical. How it is done:
(§2) PKC activity assay was conducted by monitoring the phosphorylation of myelin basic protein (MBP), a known substrate for PKCs. The detailed procedure was performed as described in Ling, D. S. F. et al. (2002) for PKC-ι and PKM-ζ [37].
(§3) PKC activity assay was performed by suspending 0.5 μg of PKC-ζ and PKC-ι separately in 200 μL of PKC kinase buffer to test the ability of PKC-ζ and PKC-ι of phosphorylating and immunoprecipitating HSF-1 of the SK-MEL-2 cells and PCS-200-013 cells. The PKC kinase buffer composition was 20 mM Tris-HCL (pH of 7.5), 6 mM Magnesium acetate, phosphotidylserine ([…], 20 μL of 10 mg/mL solution), ATP (0.0045 mg/mL) and also the desired inhibitors, wherever appropriate (ICA-1, ACPD, DNDA and ζ-Stat). The inhibitor was used in two different concentrations as 1 μM and 0.5 μM. The reaction was terminated after incubation for 5 minutes at 30° C. by addition of sample loading buffer. Samples were then separated by PAGE and immunoblotted against anti-PKC antibodies (either PKC-ι or PKC-ζ) and against phosphospecific HSF-1 antibodies. Samples were also probed against anti-HSF-1 antibody to determine that the protein immunoprecipitaed was HSF-1. The signal was visualized using enhanced chemiluminescence.
(§4) The activity of DNDA (FIG. 2) was determined for a series of concentrations (0-20 μM) using recombinant active PKC-ι or PKM-ζ in the presence of MBP (5 μg). The maximum inhibition of PKC-ζ was 40% and reached at 2 (P≤0.05). Inhibition remained the same upon increasing the concentration PKM-ζ is an active form of PKC-ζ found in human brain due to proteolytic cleavage of N-regulatory domain and the C-terminal catalytic domain of PKC-ζ [27-29].

Assay [5] deals with T2, recombinant active PKC-ι (Homo sapiens, UniProt P41743).
T2 sequence (P41743 1-596): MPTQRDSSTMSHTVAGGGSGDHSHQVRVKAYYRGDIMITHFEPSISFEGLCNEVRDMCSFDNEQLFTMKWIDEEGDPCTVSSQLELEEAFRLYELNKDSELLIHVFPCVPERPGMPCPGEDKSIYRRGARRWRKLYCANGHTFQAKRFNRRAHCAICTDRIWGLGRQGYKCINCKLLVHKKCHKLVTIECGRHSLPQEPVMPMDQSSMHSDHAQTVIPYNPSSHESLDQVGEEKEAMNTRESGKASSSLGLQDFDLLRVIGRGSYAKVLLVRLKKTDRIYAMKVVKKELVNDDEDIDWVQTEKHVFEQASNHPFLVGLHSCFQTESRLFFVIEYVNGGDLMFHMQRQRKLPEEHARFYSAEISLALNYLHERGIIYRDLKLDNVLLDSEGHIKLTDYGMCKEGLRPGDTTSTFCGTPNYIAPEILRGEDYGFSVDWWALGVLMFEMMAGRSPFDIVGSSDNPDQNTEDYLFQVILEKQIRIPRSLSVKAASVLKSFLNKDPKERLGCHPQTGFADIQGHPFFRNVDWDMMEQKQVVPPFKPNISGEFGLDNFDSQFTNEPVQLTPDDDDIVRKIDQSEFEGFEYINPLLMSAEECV
The description is as above. Format: biochemical. How it is done:
as §2, §3, §4

We go through three compounds from patent publication US11065266B2, “Method of treating melanoma using an inhibitor of an atypical protein kinase C” (UNIVERSITY OF SOUTH FLORIDA, priority 2016, dated 2021).

As for `CC(=O)C1=C(O)CCC1=O` [ACPD, 2-acetyl-1,3-cyclopentanedione], in assay [1] (200 nM), the “scratch coverage in wound healing assay” value was “not completely covered”. Besides, in assay [1] (1 μM), the “scratch coverage in wound healing assay” value was “not completely covered”. Moreover, the wound closure result in assay [1] was “significantly reduce the wound closure”. Besides, the wound closure entry in assay [2] is “significantly reduce the wound closure”. Further, in assay [3], the “decrease of Bcl-2 levels” value is reported as 25%, the “decrease of CD44” value is listed as 34%, the “decrease of PARP levels” value was 24% and the “decrease of Vimentin levels” value came out at 38%. In addition, in assay [3], the “decrease of β-catenin” value is recorded as 16%, the “increase of Caspase-3 levels” value amounted to 17%, the “increase of E-cadherin levels” value is given as 35% and the “increase of NF-KB p65 levels” value is reported as 69%. Also, the “increase of cleaved PARP levels” value in assay [3] stood at 18%.
With `Nc1c(S(=O)(=O)O)cc2cc(S(=O)(=O)O)ccc2c1N` [DNDA, 3,4-diamino-2,7-naphthalenedisulfonic acid], the “maximum inhibition of PKC-ζ” value in assay [4] (reached at 2 (unit not given), series 0-20 μM, MBP 5 μg) turned out to be 40%. For the same compound, the inhibition at 0.5 µM in assay [5] (reached at 0.5 μM, series 0-20 μM, MBP 5 μg, read-out: maximum inhibition of PKC-ι) is approximately 15%. Besides, in assay [1], the wound closure result is listed as “significantly reduce the wound closure”. For the same compound, in assay [2], the wound closure result was “significantly reduce the wound closure”. For the same compound, in assay [3], the “decrease of Bcl-2 levels” value worked out at 32%, the “decrease of CD44” value amounted to 43%, the “decrease of Vimentin levels” value is 45% and the “decrease of β-catenin” value is recorded as 21%. Also, in assay [3], the “increase of Caspase-3 levels” value turned out to be 39%, the “increase of E-cadherin levels” value was found to be 29%, the “increase of NF-KB p65 levels” value was 89% and the “increase of PARP levels” value came out at 9%. For the same compound, the “increase of cleaved PARP levels” value in assay [3] is reported as 10%.
Turning to `O=S(=O)(O)c1cc(O)c2c(S(=O)(=O)O)cc(S(=O)(=O)O)cc2c1` [ζ-Stat, 8-hydroxy-1,3,6-naphthalenetrisulfonic acid], the “inhibition of PKM-ζ activity” value in assay [4] (kinase activity assay) is “more than 50%”. Also, the “effect on PKC-ι in kinase activity assay” value in assay [5] is reported as “does not effect”.

The inhibition is the relative decrease from the control value, in per cent.
